Source: paper PMC6688508 (Journal of medicinal chemistry, 2019)
“Also recorded” adds a separate entry of the source.

Legend:
human D1 [1] = biological target: T1, human D1 (Homo sapiens, UniProt P21728); experiment: BRET β-arrestin2 recruitment assay; details: for β-arrestin2 recruitment activity in words: D1R BRET assay
human D1 [2] = biological target: T1, human D1; experiment: D1R GS-mediated GS-cAMP accumulation assay; details: for GS-cAMP accumulation activity in words: D1R GloSensor assay; for fold reduced potency in the GS-cAMP accumulation assay compared to 1: compared to compound 1

T1 sequence (P21728 whole entry): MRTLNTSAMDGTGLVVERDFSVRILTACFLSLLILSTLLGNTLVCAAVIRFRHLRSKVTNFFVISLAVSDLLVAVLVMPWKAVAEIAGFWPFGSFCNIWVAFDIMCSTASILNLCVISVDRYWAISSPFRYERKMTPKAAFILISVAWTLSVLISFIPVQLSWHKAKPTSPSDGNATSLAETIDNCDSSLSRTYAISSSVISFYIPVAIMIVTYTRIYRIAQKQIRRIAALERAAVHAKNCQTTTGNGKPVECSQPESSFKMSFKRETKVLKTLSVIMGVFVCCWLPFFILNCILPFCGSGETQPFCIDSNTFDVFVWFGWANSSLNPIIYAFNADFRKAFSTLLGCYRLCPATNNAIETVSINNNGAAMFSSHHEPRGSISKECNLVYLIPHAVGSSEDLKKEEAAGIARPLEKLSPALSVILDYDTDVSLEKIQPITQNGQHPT

Compound | β-arrestin2 recruitment activity in words (human D1 [1]) | other results
Cc1ncc2nccn2c1-c1ccc(Oc2nccc3occc23)c(C(F)(F)F)c1 [Compound 18, 4-(4-(6-Methylimidazo[1,2-a]pyrazin-5-yl)-2-(trifluoromethyl)-phenoxy)furo[3,2-c]pyridine] | completely devoid of activity in both the G protein and β-arrestin2 recruitment assays | GS-cAMP accumulation activity in words (human D1 [2]): completely devoid of activity in both the G protein and β-arrestin2 recruitment assays
Cc1cc(Oc2nccc3[nH]ncc23)ccc1-c1c(C)ncc2nccn12 [Compound 32, 4-(3-Methyl-4-(6-methylimidazo[1,2-a]pyrazin-5-yl)phenoxy)-1H-pyrazolo[4,3-c]pyridine] | not recovered | 
Cc1cc(Nc2nccc3occc23)ccc1-c1c(C)ncc2nccn12 [Compound 20, N-(3-Methyl-4-(6-methylimidazo[1,2-a]pyrazin-5-yl)phenyl)furo-[3,2-c]pyridin-4-amine] | only minimally active in the β-arrestin2 recruitment assay | 
Cc1cc(Oc2nccc3occc23)ccc1-c1cncc(C(N)=O)c1 [Compound 12, 5-(4-(Furo[3,2-c]pyridin-4-yloxy)-2-methylphenyl)nicotinamide] | inactive in the β-arrestin2 recruitment assay | 
Cc1ncc2nccn2c1-c1ccc(Oc2nccc3occc23)c(C)c1C [Compound 15, 4-(2,3-Dimethyl-4-(6-methylimidazo[1,2-a]pyrazin-5-yl)-phenoxy)furo[3,2-c]pyridine] | inactive in β-arrestin2 recruitment | 
Cc1ncc2nccn2c1-c1cc(F)c(Oc2nccc3occc23)c(F)c1 [Compound 19, 4-(2,6-Difluoro-4-(6-methylimidazo[1,2-a]pyrazin-5-yl)-phenoxy)furo[3,2-c]pyridine] | eliminated β-arrestin2 recruitment activity | 
FC(F)(F)c1cc(Oc2cc(N3CCCCC3)ccn2)ccc1-c1cccc2nccn12 [Compound 50, 5-(4-((4-(Piperidin-1-yl)pyridin-2-yl)oxy)-2-(trifluoromethyl)-phenyl)imidazo[1,2-a]pyridine] | inactive in both the GS and β-arrestin2 pathways | GS-cAMP accumulation activity in words (human D1 [2]): inactive in both the GS and β-arrestin2 pathways
Cc1cc(Oc2nccc3occc23)ccc1-c1c(C)cnnc1C [Compound 9, 4-(4-(3,5-Dimethylpyridazin-4-yl)-3-methylphenoxy)furo[3,2-c]-pyridine] | not active in the β-arrestin2 recruitment assay | EC50 (human D1 [2]): 1 nM
Cc1cc(Oc2nccn3ccnc23)ccc1-c1c(C)ncc2nccn12 [Compound 31, 5-(4-(Imidazo[1,2-a]pyrazin-8-yloxy)-2-methylphenyl)-6-methylimidazo[1,2-a]pyrazine] | β-arrestin2 recruitment was undetectable | 
Cc1cc(Oc2nccc3occc23)ccc1-c1c(C)nc2cnccn12 [Compound 4, 4-(3-Methyl-4-(2-methylimidazo[1,2-a]pyrazin-3-yl)phenoxy)-furo[3,2-c]pyridine] |  | fold reduction in potency for β-arrestin2 recruitment compared to 1 (human D1 [1]; compared to compound 1): 22 fold; fold reduced potency in the GS-cAMP accumulation assay compared to 1 (human D1 [2]): 23 fold
Fc1cc(-c2cccc3nccn23)cc(F)c1Oc1nccc2occc12 [Compound 43, 4-(2,6-Difluoro-4-(imidazo[1,2-a]pyridin-5-yl)phenoxy)furo[3,2-c]pyridine] | minimal β-arrestin2 recruitment | 
Cc1cc(Oc2ccccn2)ccc1-c1c(C)ncc2nccn12 [Compound 33, 6-Methyl-5-(2-methyl-4-(pyridin-2-yloxy)phenyl)imidazo[1,2-a]-pyrazine] | very weak activity in the β-arrestin2 recruitment assay | 
Cc1c(Oc2nccc3occc23)ccc(-c2cccc3nccn23)c1C [Compound 38, 4-(4-(Imidazo[1,2-a]pyridin-5-yl)-2,3-dimethylphenoxy)furo[3,2-c]pyridine] | β-arrestin2 recruitment was eliminated | 
Cc1cc(Oc2nccc3occ(C4CC4)c23)ccc1-c1c(C)ncc2nccn12 [Compound 26, 3-Cyclopropyl-4-(3-methyl-4-(6-methylimidazo[1,2-a]pyrazin-5-yl)phenoxy)furo[3,2-c]pyridine] | diminished β-arrestin2 recruitment activity | 
Cc1cc(Oc2nccc3occc23)cc(C)c1-c1cccc2nccn12 [Compound 39, 4-(4-(Imidazo[1,2-a]pyridin-5-yl)-3,5-dimethylphenoxy)furo[3,2-c]pyridine] | completely inactive | GS-cAMP accumulation activity in words (human D1 [2]): completely inactive
Cc1cc(Oc2nccc3ccccc23)ccc1-c1c(C)ncc2nccn12 [Compound 28, 1-(3-Methyl-4-(6-methylimidazo[1,2-a]pyrazin-5-yl)phenoxy)-isoquinoline] | inactive for β-arrestin2 recruitment | 
Cc1cc(Oc2ncccc2Br)ccc1-c1c(C)ncc2nccn12 [Compound 34, 5-(4-((3-bromopyridin-2-yl)oxy)-2-methylphenyl)-6-methylimidazo[1,2-a]pyrazine] | completely inactive in both pathways | GS-cAMP accumulation activity in words (human D1 [2]): completely inactive in both pathways

Compound | β-arrestin2 recruitment activity in words (human D1 [1]) | other results
Cc1cc(-c2cccc3nccn23)ccc1Oc1nccc2occc12 [Compound 37, 4-(4-(Imidazo[1,2-a]pyridin-5-yl)-2-methylphenoxy)furo[3,2-c]-pyridine] | eliminated β-arrestin2 recruitment activity | 
CCOc1ncnc(C)c1-c1ccc(Oc2nccc3occc23)cc1C [Compound 8, 4-(4-(4-Ethoxy-6-methylpyrimidin-5-yl)-3-methylphenoxy)furo-[3,2-c]pyridine] | not active in the β-arrestin2 recruitment assay | 
COC(=O)c1cccn2c(-c3ccc(Oc4nccc5occc45)cc3C)cnc12 [Compound 6, Methyl-3-(4-(furo[3,2-c]pyridin-4-yloxy)-2-methylphenyl)-imidazo[1,2-a]pyridine-8-carboxylate] | no detectable β-arrestin2 recruitment activity | 
FC(F)(F)c1cc(Oc2ccccn2)ccc1-c1cccc2nccn12 [Compound 49, 5-(4-(Pyridin-2-yloxy)-2-(trifluoromethyl)phenyl)imidazo[1,2-a]-pyridine] | no activity in the β-arrestin2 pathway | 
Cc1cc(-c2c(C)ncc3nccn23)ccc1Oc1nccc2occc12 [Compound 14, 4-(2-Methyl-4-(6-methylimidazo[1,2-a]pyrazin-5-yl)phenoxy)-furo[3,2-c]pyridine] | completely eliminated β-arrestin2 recruitment activity | 
Cc1cc(Oc2nccc3occc23)ccc1-c1nc(N)cnc1C [Compound 7, 6-(4-(Furo[3,2-c]pyridin-4-yloxy)-2-methylphenyl)-5-methylpyrazin-2-amine] | minimal β-arr2 recruitment | 
FC(F)(F)c1cc(-c2cccc3nccn23)ccc1Oc1nccc2occc12 [Compound 42, 4-(4-(Imidazo[1,2-a]pyridin-5-yl)-2-(trifluoromethyl)phenoxy)-furo[3,2-c]pyridine] | inactive in both G protein and β-arrestin2 recruitment assays | GS-cAMP accumulation activity in words (human D1 [2]): inactive in both G protein and β-arrestin2 recruitment assays
COc1ccc(-c2ccc(Oc3nccc4occc34)cc2C)c(C)n1 [Compound 11, 4-(4-(6-Methoxy-2-methylpyridin-3-yl)-3-methylphenoxy)furo-[3,2-c]pyridine] | inactive in the β-arrestin2 recruitment assay | 
FC(F)(F)c1cc(Oc2nccn3cccc23)ccc1-c1cccc2nccn12 [Compound 47, 5-(4-(Pyrrolo[1,2-a]pyrazin-1-yloxy)-2-(trifluoromethyl)phenyl)-imidazo[1,2-a]pyridine] | completely abrogated | 
Cc1cc(Oc2nccc3occc23)ccc1-c1cccc2nccn12 [Compound 5, 4-(4-(Imidazo[1,2-a]pyridin-5-yl)-3-methylphenoxy)furo[3,2-c]-pyridine] |  | fold reduced potency in the GS-cAMP accumulation assay compared to 1 (human D1 [2]): approximately 10 fold
Cc1cc(Oc2nccc3occc23)ccc1-c1ccc(C#N)cn1 [Compound 13, 6-(4-(Furo[3,2-c]pyridin-4-yloxy)-2-methylphenyl)nicotinonitrile] | inactive in the β-arrestin2 recruitment assay | 
FC(F)(F)c1cc(Oc2nccc3occ(C4CC4)c23)ccc1-c1cccc2nccn12 [Compound 44, 3-Cyclopropyl-4-(4-(imidazo[1,2-a]pyridin-5-yl)-3-(trifluoromethyl)phenoxy)furo[3,2-c]pyridine] | abolished β-arrestin2 recruitment | 
FC(F)(F)c1cc(Oc2nccc3ccsc23)ccc1-c1cccc2nccn12 [Compound 46, 7-(4-(Imidazo[1,2-a]pyridin-5-yl)-3-(trifluoromethyl)phenoxy)-thieno[2,3-c]pyridine] | minimal β-arr2 recruitment; also recorded: greatly weakened | 
Cc1cc(Oc2cccc3occc23)ccc1-c1c(C)ncc2nccn12 [Compound 27, 5-(4-(Benzofuran-4-yloxy)-2-methylphenyl)-6-methylimidazo-[1,2-a]pyrazine] | inactivity for β-arrestin2 recruitment | 
Cc1ncc2nccn2c1-c1ccc(Oc2nccc3occc23)cc1C(F)(F)F [Compound 17, 4-(4-(6-Methylimidazo[1,2-a]pyrazin-5-yl)-3-(trifluoromethyl)-phenoxy)furo[3,2-c]pyridine] | potent full agonist of both signaling pathways | GS-cAMP accumulation activity in words (human D1 [2]): potent full agonist of both signaling pathways
FC(F)(F)c1cc(Oc2nccc3ccccc23)ccc1-c1cccc2nccn12 [Compound 45, 1-(4-(Imidazo[1,2-a]pyridin-5-yl)-3-(trifluoromethyl)phenoxy)-isoquinoline] | β-arrestin2 recruitment still eliminated | 
